Molecules are shown by their SMILES.

Data set [1] in a line: HaCaT cytotoxicity test (MTS cell viability). To be noted: human, HaCaT cells (skin epidermal cells). The format is cell-based. Here is the method: HaCaT cells, skin epidermal cells (derived from human), were used. The medium was DMEM low (SH30021.01, HyClone™, Logan, UT, USA) medium containing 10% fetal bovine serum (FBS, Lonza, Valais, Switzerland) medium. The cell lines were cultured in an incubator adjusted to 95% humidity, 5% CO2 and 37° C., and at this time, a medium antibiotic (Penicillin streptomycin, Gibco, Calif., USA) was used to suppress contamination or proliferation of microorganisms. When the cells covered the dish about 80%, the cells were washed with phosphated-buffered saline-EDTA (PBS-EDTA), and then the cells attached to the bottom of the dish were detached by treating with 1 ml of 0.05% trypsin EDTA, and subjected to subculture. The medium was exchanged every 48 hours to culture the cells.
Cell viability was measured using MTS (CellTiter 96® AQueous One Solution Cell Proliferation Assay, Promega, USA) reagent. The cells were divided at a concentration of 1×10^4 cells/well in a 96-well plate and then stabilized for 24 hours in an incubator controlled to 95% humidity, 5% CO2 and 37° C. After that, the samples were treated for each concentration (table 1) and cultured for 24 hours in an incubator controlled to 95% humidity, 5% CO2 and 37° C. After the medium was removed, 9 ml of medium (DMEM low, free FBS) was added to 1 ml of the reagent and diluted, and then 100 ul of the diluted solution was treated per well. After the reaction at 37° C. for 60 minutes, absorbance was measured at 490 nm with microplate reader (Molecular Devices, VersaMax ELISA Microplate Reader, USA). Cell viability was represented by absorbance of a sample-treated group compared to a control group not treated with the sample.

In the next data set the test system is collagenase. As to the kind of experiment: Collagenase inhibitory activity (EnzChek Gelatinase/Collagenase Assay Kit, DQ collagen). The format is biochemical. The procedure:
Collagenase inhibitory activity was performed by purchasing EnzChek® Gelatinase/Collagenase Assay Kit (250-2000 Assays) reagent from Invitrogen. First, DQ collagen stock solution (1 mg/ml) was prepared by adding 1.0 ml of DDW to 1 mg DQ collagen vial. The 18 ml of DDW was added to 2 ml of 10× reaction buffer, so as to dilute reaction buffer. Then, a collagenase enzyme reagent was prepared, and diluted with reaction buffer to a final concentration of 0.2 U/ml as working solution. Three samples of 50 ? each were prepared in a 96-well plate. The 30 ? of reaction buffer was added to 20 ? of DQ collagen and sample blank, and 30 ? of working solution was added to a sample, which were then left in a light-blocked state at room temperature for about one to two hours, and then fluorescence intensity was measured at excitation wavelength 485 nm and emission wavelength 535 nm using ELISA plate reader (VICTOR X3™, PerkinElmer, US).
As a positive control, copper peptide (Comparative Example 12), which is a representative peptide widely used as a raw material for functional cosmetics, was prepared at the same concentration and used. Copper peptide has excellent skin regeneration ability and thus is used as a raw material to suppress skin aging by promoting wound healing, strengthening skin elasticity, and increasing subcutaneous fat layers.

Broadly, the viability is a read-out of living cells in per cent, often relative to untreated cells. Take `NC(=O)C[C@H](NC(=O)CNC(=O)[C@@H]1CCCN1)C(=O)O` [PGN, Pro-Gly-Asn, reference compound]: the viability at 24 h, 1 µg/mL in data set [1] (1 μg/ml) is 118 ± 3.1%. Besides, the viability at 24 h, 10 µg/mL in data set [1] (10 μg/ml) was 129 ± 2.8%. Besides, in data set [1] (50 μg/ml), the viability at 24 h, 50 µg/mL came out at 125 ± 7.6%. For the same compound, the viability at 24 h, 100 µg/mL in data set [1] (100 μg/ml) came to 128 ± 4.1%. In addition, the Collagenase inhibitory activity in the data set with collagenase (0.05 mg/ml) is 1.6 ± 3.3%; in the data set with collagenase (0.1 mg/ml) it was 4.7 ± 3.9%; with collagenase (0.5 mg/ml) it was 11.2 ± 6.2%; in the data set with collagenase (1 mg/ml), 13.1%. Further, the “collagenase inhibitory activity IC50” value at collagenase (FIGS. 5 and 6) was determined as 1577 µg/mL.

(Values after patent US20230312643A1, “PEPTIDE DERIVATIVE WITH COLLAGENASE INHIBITORY ACTIVITY, AND USE THEREOF” (SUNMARINE BIOTECH, priority 2020, published 2023).)
